These results are taken from paper PMC6747087, “Characterization of Tachyplesin Peptides and Their Cyclized Analogues to Improve Antimicrobial and Anticancer Properties” (International Journal of Molecular Sciences, 2019).

Data set [1] in a line: in vitro. Conditions: human, 25% (v/v) human serum. As for the experimental part: The serum stability assay was carried out as previously described with some modifications. Briefly, tachyplesin variants were incubated in 25% (v/v) human serum diluted in phosphate-buffered saline (PBS) at a final concentration of 50 µM at 37 °C. Triplicates were collected at time 0 h and 24 h and the serum proteins were precipitated with acetonitrile (1:3 ratio) supplemented with 3% TFA. Samples were kept on ice for 10 min before centrifugation at 17,000× g for 10 min at 4 °C. The peptide containing supernatant of each sample was harvested and quantified using RP-HPLC (10 to 45% solvent B, 1%/min gradient). The percentage of peptide stability in human serum was calculated by comparing the area of the peptide peak obtained at 24 h to that at time 0 h. A linear peptide containing 18 amino acid residues ([…]) was included as a control susceptible to proteolytic degradation.

In data set [2] the test system is human red blood cells (RBCs). Description: Hemolytic activity against human red blood cells. In kind it is cell-based. Particulars: human RBCs 0.25% (v/v), 1 h, 37 °C; mean ± SEM. As to the method:
(§1) A small amount of blood was collected from three healthy human donors. The blood was immediately diluted in PBS and centrifuged 4–5 times for 1 min at 4000 rpm to wash and separate the human red blood cells (RBCs). RBCs suspension (0.25% (v/v) in PBS) was incubated with peptides with two-fold serial dilutions of the peptide (highest concentration tested was 128 µM, and the lowest was 0.25 µM) in a 96-well plate. Melittin, a membrane disruptive peptide, was used as control. The plates were incubated for 1 h at 37 °C. After incubation, the plates were centrifuged for 5 min at 1000 rpm to pellet any non-lysed RBCs. A total of 100 µL of the supernatant were transferred to a new 96-well plate. The hemoglobin released into the supernatant from lysed cells was measured by absorbance at 415 nm using the Tecan infinite M1000Pro multiplate reader (Männedorf, Switzerland).

A short description of data set [3]: Hemolytic activity against human red blood cells. It is filed as cell-based. Conditions: at 64 µM peptide, human RBCs, read-out: RBCs lysed (hemolysis). As for the experimental part:
as §1

For data set [4] the following is noted: human serum, 2 h; cited from earlier work.
In data set [5] the test system is S. aureus ATCC 25923. As to the kind of experiment: MIC against planktonic bacteria (resazurin). In kind it is cell-based, Staphylococcus aureus. Conditions: Mueller Hinton Broth. As for the experimental part:
(§2) S. aureus ATCC 25923, S. aureus ATCC 6538, E. coli ATCC 25922, and E. coli DC2 CGSC 7139 were grown in Mueller Hinton Broth (Sigma Aldrich, St. Luis, USA). Bacterial cultures in the exponential growth phase were diluted to an OD600nm of 0.001 and seeded into 96-well plates. Peptides at different concentrations, starting at 64 µM and with two-fold serial dilutions (i.e., 64, 32, 16, 8, 4, 2, 1, 0.5, 0.25, 0.125 and 0.0625 µM), were incubated with cells; 0.05% (v/v) resazurin was added to the cultures the next day and the conversion to resorufin was measured after 1 h of incubation at 37 °C using a 565 nm excitation and 584 nm emission wavelength, as above.
In general terms: The colour change of resazurin is a common sign of viable cells or microbes.

In data set [6] the test system is S. aureus ATCC 6538. Description: MIC against planktonic bacteria (resazurin). It is filed as cell-based, Staphylococcus aureus. Particulars: Mueller Hinton Broth. As for the experimental part:
as §2

The nature of data set [7]: Cytotoxicity assay (resazurin). It is filed as cell-based, Human. Particulars: ± SEM, n ≥ 3; for CC50 at 2 h: human. As to the method: Cells were grown in cell culture flasks and incubated in a humidified atmosphere (5% CO2, 37 °C). The cancer cell lines HeLa and the control cell line HaCaT were grown in a DMEM medium supplemented with 1% (v/v) penicillin/streptomycin and 10% (v/v) fetal bovine serum (FBS). The cancer cell lines MM96L, HT144 and WM164 were grown in a RPMI medium supplemented with 1% (v/v) penicillin/[…], 10% (v/v) FBS, 20 mM L-glutamine, and 10 mM sodium pyruvate. Cell cultures were maintained by dilution upon reaching confluence, each 48–72 h. More information about the cell lines is available in Tables S2 and S3.
(§3) Cells were seeded into 96-well flat-bottom plates at 5 × 10^3 cells/well and incubated overnight. The medium was removed and replaced with 90 µL serum-free medium, 10 µL of 10x concentrated peptide solutions in PBS were added. PBS was added as blank and 0.1% (v/v) Triton X-100 was used to establish 100% of cell death. After 2 h incubation at 37 °C, 10 µL of filtered 0.05% (w/v) resazurin solution was added to each well [70]. Resazurin is converted to the pink and fluorescent compound resorufin by viable cells. After incubation overnight, the fluorescence intensity (λex = 565 nm and λem = 584 nm) was measured with the Tecan infinite M1000Pro multiplate reader (Männedorf, Switzerland).

Data set [8] relates to E. coli ATCC 25922. Description: MIC against planktonic bacteria (resazurin). In kind it is cell-based, Escherichia coli. Conditions: Mueller Hinton Broth. As to the method: as §2
For data set [9], the system named is E. coli DC2 CGSC 7139. Description: MIC against planktonic bacteria (resazurin). It is filed as cell-based, Escherichia coli. Particulars: Mueller Hinton Broth. As for the experimental part:
as §2

The conditions of data set [10]: mouse serum, 2 h; cited from earlier work.
Data set [11] is described as follows: Activity against preformed biofilm (resazurin metabolic activity). Conditions: 24 h preformed biofilm, 4 h peptide treatment, read-out: CC50 (reduction of 50% of the metabolically active cell population). It is filed as cell-based, Staphylococcus aureus. As for the experimental part:
(§4) S. aureus ATCC 6538 (1 × 10^6 cfu/mL) was cultured in Tryptic Soy Broth, containing 0.25% (w/v) glucose and incubated in 96-well microtiter flat-bottomed polystyrene plates for 24 h at 37 °C. Preformed biofilms were then washed with Mueller Hinton Broth to remove non-adherent cells. Two-fold serial dilutions of each peptide (highest concentration tested was 32 µM and lowest was 0.25 µM) were added to the biofilms for 4 h. Untreated 24 h preformed biofilms were used as a control. The metabolic activity of biofilm-embedded cells was determined using a resazurin reduction fluorometric assay as previously described.

Data set [12] relates to Pseudomonas aeruginosa biofilm. On the set-up: method as in PMID 18022289. Conditions: rat model of ureteral stent infection; cited from earlier work.
For data set [13], the system named is S. aureus ATCC 6538 biofilm. Description: Activity against preformed biofilm (resazurin metabolic activity). In kind it is cell-based, Staphylococcus aureus. Particulars: cells remaining metabolically active at 32 µM, the highest concentration tested. As to the method: as §4
Data set [14] has as its system melanoma cell lines MM96L, HT144 and WM164. Description: Cytotoxicity and selectivity (activity-toxicity index) for melanoma cell lines. Conditions: MHC inducing 10% (lower value) or 50% (higher value) cell death in human RBCs over median CC50 of melanoma lines. It is filed as cell-based. As for the experimental part: as §3
The selectivity was calculated through the activity-toxicity index (ATI). ATI = MHC/MCC50, with MHC being the minimal concentration necessary to induce 10% or 50% cell death in human red blood cells and MCC50 the median of cytotoxic concentrations (CC50) of all tested melanoma cell lines.

The mark [15] stands for this setting: HT144, 2 h peptide in serum-free medium.
[16] abbreviates: WM164, 2 h peptide in serum-free medium.

Read-outs that look alike come from different tables or passages of the source. Residues, ends and D or L forms follow the SMILES beside them.

For orientation: amount remaining means the share of the starting amount still present when the sample was taken. The term MIC denotes the least concentration at which growth counts as inhibited. A high value points to a less susceptible organism. As usually defined, the CC50 is the concentration at which the toxic effect on the cells reaches its halfway point. A low value points to greater toxicity to the cells. With `[H][C@]12CSSC[C@]([H])(NC(=O)[C@]([H])([C@@H](C)CC)NC(=O)CNC(=O)[C@H](CCCNC(=N)N)NC(=O)[C@H](Cc3ccc(O)cc3)NC1=O)C(=O)N[C@@H](Cc1ccc(O)cc1)C(=O)N[C@@H](CCCNC(=N)N)C(=O)N[C@@H](CCCNC(=N)N)C(=O)N[C@H](C(=O)N[C@@H](CCCNC(=N)N)C(N)=O)CSSC[C@H](NC(=O)[C@H](Cc1c[nH]c3ccccc13)NC(=O)[C@@H](N)CCCCN)C(=O)N[C@@H](Cc1ccccc1)C(=O)N[C@@H](CCCNC(=N)N)C(=O)N[C@@H](C(C)C)C(=O)N2` [TI, Tachyplesin I] (HELM PEPTIDE1{K.W.C.F.R.V.C.Y.R.G.I.C.Y.R.R.C.R.[am]}$PEPTIDE1,PEPTIDE1,3:R3-16:R3|PEPTIDE1,PEPTIDE1,7:R3-12:R3$$$V2.0), the amount remaining at 24 h, 50 µM in [1] amounted to 25%. Besides, the “HC50 (concentration required to induce 50% lysis in RBCs)” value in data set [2] was 34.9 ± 2.8 µM. Further, the hemolysis in data set [3] amounted to 66%. The stability in serum entry in [4] and in data set [10] was “completely stable” each time. Moreover, the minimum inhibitory concentration (MIC) lay within 1 to 4 µM in [5], 4 to 8 µM in data set [6], 0.0625 to 0.5 µM in data set [8] and 0.5 to 1 µM in data set [9]. Further, the CC50 in [7] (setting [15]) came to 1700 ± 200 nM; in data set [7] (HaCaT non-cancerous control, 2 h peptide in serum-free medium) it was 11600 ± 1600 nM; in data set [7] (HeLa, 2 h peptide in serum-free medium) it was 13100 ± 1200 nM; in [7] (MM96L, 2 h peptide in serum-free medium), 1500 ± 100 nM; in [7] (setting [16]), 2500 ± 100 nM. The Concentration reducing biofilm metabolic activity by 50% in data set [11] turned out to be 21.5 ± 2.2 µM.

Consider `CC[C@H](C)[C@@H]1NC(=O)CNC(=O)[C@H](CCCNC(=N)N)NC(=O)[C@H](Cc2ccc(O)cc2)NC(=O)[C@@H]2CSSC[C@H](NC1=O)C(=O)N[C@@H](Cc1ccc(O)cc1)C(=O)N[C@@H](CCCNC(=N)N)C(=O)N[C@@H](CCCCN)C(=O)N[C@H](C(=O)N[C@@H](CCCNC(=N)N)C(N)=O)CSSC[C@H](NC(=O)[C@H](Cc1c[nH]c3ccccc13)NC(=O)[C@@H](N)CCCCN)C(=O)N[C@@H](Cc1ccccc1)C(=O)N[C@@H](CCCNC(=N)N)C(=O)N[C@@H](C(C)C)C(=O)N2` [TIII, Tachyplesin III] (HELM PEPTIDE1{K.W.C.F.R.V.C.Y.R.G.I.C.Y.R.K.C.R.[am]}$PEPTIDE1,PEPTIDE1,3:R3-16:R3|PEPTIDE1,PEPTIDE1,7:R3-12:R3$$$V2.0; N-terminus assumed), for which the “HC50 (concentration required to induce 50% lysis in RBCs)” value in [2] was 86.4 ± 12.2 µM. The hemolysis at 1 h in data set [3] (red blood cells in PBS) worked out at 41%. Moreover, the minimal inhibitory concentration (MIC) in data set [5] was 1 to 4 µM; in data set [6], 4 to 8 µM; in [8] it was 0.0625 to 0.5 µM; in data set [9], 0.25 to 0.5 µM. For the same compound, the CC50 at 2 h in data set [7] (HaCaT keratinocyte cells, HaCaT non-cancerous control, 2 h peptide in serum-free medium) came out at 7300 ± 500 nM; in data set [7] (HeLa cervical cancer cells, 2 h peptide in serum-free medium), 21700 ± 1100 nM; in data set [7] (MM96L melanoma cells, 2 h peptide in serum-free medium), 1800 ± 100 nM; in data set [7] (setting [15]), 2000 ± 100 nM; in data set [7] (setting [16]), 1700 ± 100 nM. Moreover, the “prevention of biofilm formation” value in data set [12] is “prevent the formation of a Pseudomonas aeruginosa biofilm”. The “Metabolically Active Cells” value in [13] is recorded as 43.3 ± 4.1%. Besides, in [11] (Staphylococcus aureus, preformed S. aureus biofilm), the Concentration reducing biofilm metabolic activity by 50% at 4 h was determined as 24.2 ± 4.1 µM. Also, the “Melanoma Selectivity (activity-toxicity index, ATI = MHC/MCC50)” value in data set [14] is recorded as 5–48.
